The structures appear in SMILES notation.

Test [1] concerns bcl-2 G-quadruplex DNA (DNA, G4) CGGGCGCGGGAGGAAGGGGGCGGGAGC
The test is described as follows: UV-vis absorption titration. The following applies: 100 mM KCl; 10 mM Tris-HCl, pH 7.4; 20 μM complex; intrinsic binding constant.

The test system is the same in test [2]. The test is described as follows: CD melting at 280 nm. The following applies: 100 mM KCl; 10 mM Tris-HCl, pH 7.4; 10 μM complex, 100 μM DNA.

Broadly, the ΔTm is the shift of the melting midpoint relative to a reference. For the compound `Clc1ccc(-c2nc3c4cccnc4c4ncccc4c3[nH]2)cc1.[Cl-].[Ru+2].c1ccccc1`, the K in test [1] is listed as ~ 2.94 × 10^6 M^-1. Also, in test [2], the ΔTm stood at 4.2 °C.

These data come from article PMC5503023 (2016).
